Reference: patent US20090270404A1, “OXYMETHYLENE ARYL COMPOUNDS AND USES THEREOF” (Metabolex, Inc., priority 2008, published 2009)

Columns and labels:
[1] = tested on: mice; test: Incretin secretion of mice, dose response on top of sitagliptin; assay type: in vivo; conditions: increasing dosages (1, 3, 10, 30 and 300 mg/kg) given in addition to sitapliptin at 100 mg/kg, 10 minutes after glucose, FIG. 5a
Experimental: 5-Ethyl-2-{4-[4-(4-tetrazol-1-yl-phenoxymethyl)-thiazol-2-yl]-piperidin-1-yl}-pyrimidine, sitagliptin, and vildagliptin were prepared as in Examples 1 and 2.
Mice were fasted for 6 h prior to drug administration. Blood glucose was measured after the 6 h fast (T30 min), and animals were sorted into 6 groups evenly matched for fasting glucose levels and body weight. At T30 min, drug suspension as prepared in Example 1 herein, was administered to the mice by oral gavage. All groups were given sitagliptin at 100 mg/kg, and Compound 1 was given at 1, 3, 10, 30 and 300 mg/kg. 100 mg/kg sitagliptin was chosen since this dose is greater than that required to achieve 80% DPP-IV inhibition in mice over the time period evaluated in this study. (Kim et al, 2005). Glucose (2 g/kg) was administered by oral gavage at T0. Animals were anesthetized and blood drawn by terminal cardiac puncture 10 minutes after glucose administration. To address the effects on incretin production, total GIP levels were measured. […] The DPP-IV inhibitor sitagliptin was co-administered to prevent breakdown of active GLP-1 by DPP-IV (Kim et al; 2005). Statistical significance of differences in GLP-1, GIP and glucose levels between compound+sitagliptin treatment and sitagliptin alone was determined by one way ANOVA with Dunnet's post test. Differences with a p value less than 0.05 were considered significant. […]

[2] = tested on: C57Bl/6J mice; test: Oral glucose tolerance test in mice (with sitagliptin); assay type: in vivo; conditions: glucose 2 g/kg, FIG. 1
Experimental: C57Bl/6J mice were fasted for 6 hours prior to drug administration. Blood glucose was measured after the 6 hour fast (T30 min), and animals were sorted into groups evenly matched for fasting glucose levels. At T30, drug suspension was administered to the mice by oral gavage. Glucose was administered at TO min at 2 g/kg. The administration volume was 5 mL/kg of body weight. Blood was sampled at TO, prior to glucose administration, then at 15, 30, 60, 90 and 120 min after glucose administration for measurement of glucose by glucometer. 10 mice were used for each dose group. The formulation of 5-Ethyl-2-{4-[4-(4-tetrazol-1-yl-phenoxymethyl)-thiazol-2-yl]-piperidin-1-yl}-pyrimidine and sitagliptin was 1% carboxymethylcellulose, 2% Tween 80 prepared in a manner essentially as described in Example 2. The formulation was a suspension and was continuously stirred during dosing of the animals.
Glucose levels were plotted against time and the incremental area under the curve (AUC) of the glucose excursion was determined from T0 to T120 using GraphPad Prism 5.1. Statistical significance of differences in AUC between compound treatment and vehicle was determined by non-parametric Kruskal-Wallis test with Dunn's post test. […] Statistical differences in the glucose levels at each time point during OGTT were determined by two way ANOVA with Bonferroni's post test. […]

Structure (SMILES) | secretion of active GLP-1 [1] | incremental AUC of the glucose excursion T0 to T120 ([2]; compound only at 30 mg/kg oral gavage) | incremental AUC of the glucose excursion T0 to T120 ([2]; sitagliptin alone at 10 mg/kg oral gavage)
CCc1cnc(N2CCC(c3nc(COc4ccc(-n5cnnn5)cc4)cs3)CC2)nc1 [5-Ethyl-2-{4-[4-(4-tetrazol-1-yl-phenoxymethyl)-thiazol-2-yl]-piperidin-1-yl}-pyrimidine] | stimulated secretion of active GLP-1 | approximately 3200 mg.min/dl | 
N[C@@H](CC(=O)N1CCn2c(nnc2C(F)(F)F)C1)Cc1cc(F)c(F)cc1F [sitagliption, sitagliptin, reference compound] |  |  | approximately 2800 mg.min/dl
